Source: US20080319042A1, “Compositions and methods for treatment of liver disease” (priority 2007, published 2008)
“And” between values parts separate entries of the source, which are not always exact repeats. Identical values can stand only once.

Assays:
HCV = conditions: cited from earlier work
HBV DNA = experiment: Anti-HBV DNA Assay; assay type: cell-based, hepatitis B virus; conditions: for HBV DNA copies/ml: replicates, listed as HP-S1
Hep G2.2.15 cells = experiment: % Cell Viability in Anti-HBSAg Assay (Procedure A); assay type: cell-based, human; conditions: 50 μg/ml
Experimental: (§1) The HBV-producing human hepatoblastoma cell line, Hep G2.2.15 was maintained in DMEM supplemented with 10% fetal bovine serum (FBS), 2 mM glutamine, 100 units/ml penicillin, 100 μg/ml streptomycin and 380 μg/ml gentamicin sulfate (G418) at 37° C. under 5% CO2 in air. The Hep G2 parental cells were grown under identical conditions in MEM with Earle's salts without G418.
(§2) Hep G2.2.15 cells (190 μl) were seeded onto microtiter plates at a concentration of 20×10^4 cells/ml. The cells incubated overnight in medium without G418 after which the compound compositions (10 μl) were added. Five 2-fold serial dilutions of extracts or fractions were tested starting at 200 μg/ml final culture concentration. PBS and 3TC (lamivudine) were included as the negative and positive controls, respectively. The treated cells were incubated at 37° C. for 4 days, after which the hepatitis B surface antigen (HBsAg) production in culture supernatants was assayed. The HBsAg released into the culture medium in the presence or absence of test samples was assayed using the BIO-RAD Genetic Systems HBsAg EIA 3.0 kit (Bio-Rad, Redmond, Wash.). This enzyme immunoassay is based on the capture of HBsAg on monoclonal antibody-coated plates. Four- and twelve-fold dilutions of all culture supernatants collected were assayed in triplicate wells of the EIA plate. The percentage inhibition of HBsAg secretion in the presence of the plant samples was calculated against the negative control (PBS).

HBeAg = experiment: Anti-HBSAg Assay (Procedure B), HBeAg; assay type: cell-based, hepatitis B virus
HCV/HIV pseudovirions = experiment: microbe, parasite or virus in culture; assay type: cell-based, hepatitis C virus; conditions: FIG. 1
[1] = tested on: hepatitis B surface antigen (HBsAg) production; experiment: Anti-HBSAg Assay (Procedure A); assay type: cell-based, hepatitis B virus; conditions: 50 μg/ml
Experimental: as §1, §2

HBsAg = experiment: Anti-HBSAg Assay (Procedure B), HBsAg; assay type: cell-based, hepatitis B virus
Experimental: The HBV-producing human hepatoblastoma cell line, Hep G2 2.2.15 is maintained in DMEM supplemented with 10% fetal bovine serum (FBS), 2 mM glutamine, 100 units/ml penicillin, 100 μg/ml streptomycin at 37° C. under 5% CO2 in air.
Samples were dissolved in DMSO at the concentration of 20 mg/mL, then further diluted with DMEM medium to the appropriate concentration.
Hep G2 2.2.15 cells (120 μl) were seeded onto 96-well plates at a concentration of 2×10^5 cells/mL. The cells incubated for 72 h in the medium without G418, after which the test samples (120 μl) were added. Five 3-fold serial dilutions of samples were tested. PBS and 3TC (lamivudine) were included as the negative and positive controls, respectively. The treated cells were incubated at 37° C. for 9 days; with the medium with sample being changed each 3 days, after which the culture supernatant was removed for analysis of both the hepatitis B surface antigen (HBsAg) production and hepatitis B DNA expression.
The HBsAg released into the culture medium in the presence or absence of test material was assayed using the kit manufactured by Shanghai Siic Kehua Biotech Co., Ltd (Shanghai, China). This enzyme immunoassay is based on the capture of HBsAg on monoclonal antibody-coated plates. Four- and twelve-fold dilutions of all culture supernatants collected were assayed in triplicate wells of the kit plate. The percentage inhibition of HBsAg secretion in the presence of the compound was calculated against the negative control (PBS). The IC50 values, the dose that inhibited viruses by 50%, were calculated using non-linear regression analysis (percent survival versus concentration).

## COc1cc2c(c(OC)c1OC)-c1ccc(OC)c(=O)cc1[C@@H](NC(C)=O)CC2 [Colchicine, colchicine]
HCV; advanced liver disease
  effect on disease progression (in words): does not slow the disease progression

## COC(=O)C1=CO[C@@H](O[C@@H]2O[C@H](CO)[C@@H](O)[C@H](O)[C@H]2O)[C@H]2[C@@H]1[C@H](O)[C@H](O)[C@]2(C)O [lamiridoside]
HBV DNA; 12.5 μg/ml
  HBV DNA Average: 1.18 × 10^6 copies/ml
  HBV DNA Inhibit: 0.00%
  HBV DNA copies/ml: 1.32E+06 copies/ml and 9.64E+05 copies/ml and 1.26E+06 copies/ml
HBV DNA; 25 μg/ml
  HBV DNA Average: 1.64 × 10^6 copies/ml
  HBV DNA Inhibit: 0.00%
  HBV DNA copies/ml: 1.95E+06 copies/ml and 1.30E+06 copies/ml and 1.67E+06 copies/ml
HBV DNA; 50 μg/ml
  HBV DNA Average: 1.16 × 10^6 copies/ml
  HBV DNA Inhibit: 0.85%
  HBV DNA copies/ml: 1.26E+06 copies/ml and 1.14E+06 copies/ml and 1.07E+06 copies/ml
HBV DNA; 100 μg/ml
  HBV DNA Average: 1.02 × 10^6 copies/ml
  HBV DNA Inhibit: 12.80%
  HBV DNA copies/ml: 7.78E+05 copies/ml and 7.93E+05 copies/ml and 1.50E+06 copies/ml
HBV DNA; 200 μg/ml
  HBV DNA Average: 8.40 × 10^5 copies/ml
  HBV DNA Inhibit: 28.20%
  HBV DNA copies/ml: 1.17E+06 copies/ml and 5.77E+05 copies/ml and 7.74E+05 copies/ml
HBV DNA; Table 3
  Anti-HBV DNA activity (in words): inactive
Hep G2.2.15 cells
  % Cell Viability: 100%
HBeAg; 12.5 μg/mL
  HBeAg Ave: 1.369
  HBeAg Inhibition %: 0%
  HBeAg OD1: 1.509
  HBeAg OD2: 1.254
  HBeAg OD3: 1.345
HBeAg; 25 μg/mL
  HBeAg Ave: 1.512
  HBeAg Inhibition %: 0%
  HBeAg OD1: 1.558
  HBeAg OD2: 1.488
  HBeAg OD3: 1.49
HBeAg; 50 μg/mL
  HBeAg Ave: 1.642
  HBeAg Inhibition %: 0%
  HBeAg OD1: 1.774
  HBeAg OD2: 1.669
  HBeAg OD3: 1.482
HBeAg; 100 μg/mL
  HBeAg Ave: 1.558
  HBeAg Inhibition %: 0%
  HBeAg OD1: 1.607
  HBeAg OD2: 1.502
  HBeAg OD3: 1.565
HBeAg; 200 μg/mL
  HBeAg Ave: 1.450
  HBeAg Inhibition %: 0%
  HBeAg OD1: 1.095
  HBeAg OD2: 1.634
  HBeAg OD3: 1.621
HCV/HIV pseudovirions; 100 μg/mL
  inhibition of HCV/HIV entry: inactive
HCV/HIV pseudovirions
  anti-hepatitis C virus activity (in words): inactive
[1]
  % Control HBSAg: 96%
  % Inhibition: 4%
HBsAg; 12.5 μg/mL
  HBsAg Ave.: 1.262
  HBsAg Inhibition %: 0%
  HBsAg OD1: 1.305
  HBsAg OD2: 1.149
  HBsAg OD3: 1.331
HBsAg; 25 μg/mL
  HBsAg Ave.: 1.474
  HBsAg Inhibition %: 0%
  HBsAg OD1: 1.604
  HBsAg OD2: 1.418
  HBsAg OD3: 1.401
HBsAg; 50 μg/mL
  HBsAg Ave.: 1.473
  HBsAg Inhibition %: 0%
  HBsAg OD1: 1.659
  HBsAg OD2: 1.504
  HBsAg OD3: 1.255
HBsAg; 100 μg/mL
  HBsAg Ave.: 1.507
  HBsAg Inhibition %: 0%
  HBsAg OD1: 1.584
  HBsAg OD2: 1.469
  HBsAg OD3: 1.468
HBsAg; 200 μg/mL
  HBsAg Ave.: 1.527
  HBsAg Inhibition %: 0%
  HBsAg OD1: 1.546
  HBsAg OD2: 1.504
  HBsAg OD3: 1.531
HBsAg; Tables 1-2
  anti-HBSAg activity (in words): inactive

## alpha-interferon
HCV; chronic hepatitis C patients
  patients with a pronounced effect in reducing HCV to a very low level in the blood: about 25%
